The test system of assay [1] is E. coli TISTR 887. Kind of assay: Agar well diffusion assay. The class given is cell-based, Escherichia coli. The source says: (§1) To identify potential active bacterial isolates, the cross-streak and agar well diffusion method was employed against S. aureus TISTR 517 and E. coli TISTR 887, following the protocol described in a previous study. The production kinetics of antibacterial substances by the active bacterial isolates were investigated. Single colonies were suspended in 0.9% NaCl solution, and the turbidity was adjusted to an optical density (OD) of 0.35 at 625 nm. Two milliliters of the cell suspension were inoculated into 98 mL of LB broth and incubated at 37 °C with shaking at 150 rpm for seven days. At each time interval, bacterial growth was evaluated by measuring the OD at 625 nm using a UV-Vis spectrophotometer (JASCO Corporation, Tokyo, Japan). The cell-free supernatant (CFS) was obtained by centrifuging the culture at 10,000× g at 4 °C for 15 min. Subsequently, 100 µL of the supernatant was loaded into wells on MH agar plates precultured with tested pathogens. Colistin and vancomycin served as positive controls in agar well diffusion assay.
On the technique in general: A growth-free zone around the sample is the usual read-out of agar diffusion tests.

In assay [2] the test system is P. aeruginosa TISTR 357. Kind of assay: Agar well diffusion assay. The class given is cell-based, Pseudomonas aeruginosa.
Text: as §1

The test system of assay [3] is K. pneumoniae TISTR 1383. Kind of assay: Agar well diffusion assay. The class given is cell-based, Klebsiella pneumoniae.
Text: as §1

The subject of assay [4] is MRSA Strain 2468. Kind of assay: Agar well diffusion assay. Type of assay: cell-based, Staphylococcus aureus.
Text: as §1

Assay [5] deals with S. aureus TISTR 517. Kind of assay: Agar well diffusion assay. The class given is cell-based, Staphylococcus aureus.
Text: as §1

Assay [6] deals with MRSA Strain 2468. Kind of assay: microbe, parasite or virus in culture. The class given is cell-based, Staphylococcus aureus. The note with it: Staphylococcus aureus, MRSA, 24 h. The method, then:
(§2) A bacterial suspension was prepared by adjusting its turbidity at OD 625 nm to 0.1 and subsequently made a 20-fold dilution using Cation-Adjusted Mueller–Hinton broth (CAHMB) as a diluent. […] The diluted cell suspension (10 µL) was added to each well, and the plates were incubated at 37 °C for 24 h. The CAMHB alone was used as a negative control, while CAMHB containing colistin or vancomycin served as a positive control.

Assay [7] concerns S. aureus TISTR 517. Kind of assay: microbe, parasite or virus in culture. Type of assay: cell-based, Staphylococcus aureus. The note with it: Staphylococcus aureus, TISTR517, 24 h, read-out: MBC, S. aureus TISTR 517. The method, then: as §2
For assay [8], the system named is E. coli TISTR 887. Type of assay: cell-based, Escherichia coli. As to conditions: broth microdilution, 37 °C, 24 h, triplicate. The protocol: as §2
For orientation: Dilution methods test growth across graded concentrations, often in twofold steps.

Assay [9] relates to P. aeruginosa TISTR 357. Type of assay: cell-based, Pseudomonas aeruginosa. As to conditions: broth microdilution, 37 °C, 24 h, triplicate. The protocol: as §2
Assay [10] concerns K. pneumoniae TISTR 1383. The class given is cell-based, Klebsiella pneumoniae. The note with it: broth microdilution, 37 °C, 24 h, triplicate. The protocol: as §2
The subject of a further assay is E. coli. More on the design: method as in PMID 36912655. As to conditions: cited from earlier work.
Where [11] appears, read: agar well diffusion, MH agar, CFS obtained at 24 h of cultivation, 100 µL per well, colistin 25 μg, vancomycin 30 μg, mean ± SD, n = 3.

In brackets after ≈: the same amount, converted by molar mass.

As for `CN[C@H](CC(C)C)C(=O)N[C@H]1C(=O)N[C@@H](CC(N)=O)C(=O)N[C@H]2C(=O)N[C@H]3C(=O)N[C@H](C(=O)N[C@H](C(=O)O)c4cc(O)cc(O)c4-c4cc3ccc4O)[C@H](O)c3ccc(c(Cl)c3)Oc3cc2cc(c3O[C@@H]2O[C@H](CO)[C@@H](O)[C@H](O)[C@H]2O[C@H]2C[C@](C)(N)[C@H](O)[C@H](C)O2)Oc2ccc(cc2Cl)[C@H]1O` [Vancomycin], the zone of inhibition at 30 µg/disc in the assay on E. coli TISTR 887 [1] (Escherichia coli, TISTR887, 24 h, read-out: Zone of Inhibition, E. coli TISTR 887) turned out to be 0 mm; in the assay with P. aeruginosa TISTR 357 [2] (Pseudomonas aeruginosa, TISTR357, 24 h, read-out: Zone of Inhibition, P. aeruginosa TISTR 357) it was 0 mm; with K. pneumoniae TISTR 1383 [3] (Klebsiella pneumoniae, TISTR1383, 24 h, read-out: Zone of Inhibition, K. pneumoniae TISTR 1383) it was 0 mm; with MRSA Strain 2468 [4] (Staphylococcus aureus, MRSA, 24 h, read-out: Zone of Inhibition, MRSA Strain 2468), 29 ± 0.43 mm; with S. aureus TISTR 517 [5] (Staphylococcus aureus, TISTR517, 24 h, read-out: Zone of Inhibition, S. aureus TISTR 517), 28.5 ± 0.22 mm. Further, the MBC with MRSA Strain 2468 [6] (read-out: MBC, MRSA strain 2468) worked out at 4 µg/mL (≈ 2.76 µM); in the assay with S. aureus TISTR 517 [7], 2 µg/mL (≈ 1.38 µM). Further, the MIC in the assay with MRSA Strain 2468 [6] (read-out: MIC, MRSA strain 2468) was found to be 4 µg/mL (≈ 2.76 µM).
For Colistin [reference compound], the “Zone of Inhibition, E. coli TISTR 887” value with E. coli TISTR 887 [1] (setting [11]) came to 26.52 ± 0.43 mm. Also, the “Zone of Inhibition, P. aeruginosa TISTR 357” value in the assay with P. aeruginosa TISTR 357 [2] (setting [11]) is on record as 29.41 ± 0.65 mm. The “Zone of Inhibition, K. pneumoniae TISTR 1383” value in the assay with K. pneumoniae TISTR 1383 [3] (setting [11]) is recorded as 26.67 ± 0.22 mm. In addition, in the assay with MRSA Strain 2468 [4] (setting [11]), the “Zone of Inhibition, MRSA Strain 2468” value amounted to 0.00 ± 0.00 mm. Moreover, the “Zone of Inhibition, S. aureus TISTR 517” value with S. aureus TISTR 517 [5] (setting [11]) came to 0.00 ± 0.00 mm. The “MIC, E. coli TISTR 887” value with E. coli TISTR 887 [8] (CAMHB) was found to be 1 µg/mL. In addition, the “MBC, E. coli TISTR 887” value against E. coli TISTR 887 [8] (then plated on MH agar) amounted to 1 µg/mL. Also, the “MIC, P. aeruginosa TISTR 357” value in the assay with P. aeruginosa TISTR 357 [9] (CAMHB) is listed as 2 µg/mL. Moreover, the “MBC, P. aeruginosa TISTR 357” value against P. aeruginosa TISTR 357 [9] (then plated on MH agar) was determined as 2 µg/mL. The “MIC, K. pneumoniae TISTR 1383” value against K. pneumoniae TISTR 1383 [10] (CAMHB) is recorded as 1 µg/mL. In the assay on K. pneumoniae TISTR 1383 [10] (then plated on MH agar), the “MBC, K. pneumoniae TISTR 1383” value was 1 µg/mL.
For the compound brevicidine, the “viability of E. coli at lower concentrations” value with E. coli (0.5× to 2× MIC) is given as “remained viable”. Besides, in the assay with E. coli (peptide at 4× MIC), the “time to eradication of E. coli” value is 1 h.

By zone of inhibition is commonly meant the size of the clear area around the sample on an inoculated plate.
